Values after ≈ are worked out from the molar mass of the structure shown.

The conditions of data set [1]: "it is believed"; cited from earlier work.
Data set [2] is described as follows: Soluble concentration of nitroglycerin measured by HPLC. The note with it: aqueous with cosolvent or surfactant or cyclodextrin. An excerpt: The resultant suspension was centrifuged and the supernatant withdrawn to become the test article. […] The results are depicted in FIG. 1.

A word on the solubility: it is how much of the substance goes into solution per volume. For `O=[N+]([O-])OCC(CO[N+](=O)[O-])O[N+](=O)[O-]` [nitroglycerin], in data set [1], the water solubility is recorded as below 1 mg/mL. For the same compound, the solubility in data set [2] (soluble concentration of nitroglycerin, in presence of 5% aqueous solution of Pluronic F127) is around 3800 µg/mL; in data set [2] (soluble concentration of nitroglycerin, in presence of 5% aqueous solution of Tween 80) it was around 4500 µg/mL; in data set [2] (thermodynamic from solid, final concentration of nitroglycerin (solubility limit)), around 1000 µg/mL (≈ 4.4 mM); in data set [2] (thermodynamic from solid, soluble concentration of nitroglycerin, in presence of 20% aqueous solution of PEG3350), 2000 µg/mL.
